Experimental data: ChEMBL document CHEMBL1275557, “First countrywide survey of acquired metallo-beta-lactamases in gram-negative pathogens in Italy” (2008)
Converted amounts (≈) assume the structure as drawn.

What was measured:
Type in all cases: functional
[1] = test system: Pseudomonas aeruginosa; experiment: Antibacterial activity against IMP-13 producing Pseudomonas aeruginosa clone C2 isolate NA-14X-11 by Etest method in presence of Tazobactam
[2] = test system: Pseudomonas aeruginosa; experiment: Antibacterial activity against VIM-1 producing Pseudomonas aeruginosa clone A2 isolate NA-14X-21 by Etest method in presence of Tazobactam
[3] = test system: Pseudomonas aeruginosa; experiment: Antibacterial activity against IMP-13 producing Pseudomonas aeruginosa clone C1 isolate AV-13X-28 by Etest method in presence of Tazobactam
[4] = test system: Pseudomonas aeruginosa; experiment: Antibacterial activity against VIM-1 producing Pseudomonas aeruginosa clone D2 isolate VA-06X-17 by Etest method
[5] = test system: Pseudomonas aeruginosa; experiment: Antibacterial activity against VIM-1 producing Pseudomonas aeruginosa clone A2 isolate NA-14X-21 by Etest method
[6] = test system: Pseudomonas aeruginosa; experiment: Antibacterial activity against VIM-1 producing Pseudomonas aeruginosa clone E isolate VA-06X-29 by Etest method
[7] = test system: Pseudomonas aeruginosa; experiment: Antibacterial activity against IMP-13 producing Pseudomonas aeruginosa clone C2 isolate NA-14X-11 by Etest method
[8] = test system: Pseudomonas aeruginosa; experiment: Antibacterial activity against VIM-2 producing Pseudomonas aeruginosa clone B1 isolate SS-09X-45 by Etest method
[9] = test system: Pseudomonas aeruginosa; experiment: Antibacterial activity against VIM-1 producing Pseudomonas aeruginosa clone G isolate NA-14X-13 by Etest method in presence of Tazobactam
[10] = test system: Pseudomonas aeruginosa; experiment: Antibacterial activity against VIM-1 producing Pseudomonas aeruginosa clone A2 isolate NA-14X-32 by Etest method in presence of Tazobactam
[11] = test system: Pseudomonas aeruginosa; experiment: Antibacterial activity against IMP-13 producing Pseudomonas aeruginosa clone C3 isolate PG-12X-03 by Etest method
[12] = test system: Pseudomonas aeruginosa; experiment: Antibacterial activity against IMP-13 producing Pseudomonas aeruginosa clone C1 isolate AV-13X-28 by Etest method
[13] = test system: Pseudomonas aeruginosa; experiment: Antibacterial activity against VIM-1 producing Pseudomonas aeruginosa clone A3 isolate NA-14X-34 by Etest method in presence of Tazobactam
[14] = test system: Pseudomonas aeruginosa; experiment: Antibacterial activity against VIM-1 producing Pseudomonas aeruginosa clone A1 isolate FG-17X-14 by Etest method in presence of Tazobactam
[15] = test system: Pseudomonas aeruginosa; experiment: Antibacterial activity against VIM-1 producing Pseudomonas aeruginosa clone F isolate RM-11X-09 by Etest method
[16] = test system: Pseudomonas aeruginosa; experiment: Antibacterial activity against VIM-1 producing Pseudomonas aeruginosa clone A1 isolate FG-17X-14 by Etest method
[17] = test system: Pseudomonas aeruginosa; experiment: Antibacterial activity against VIM-1 producing Pseudomonas aeruginosa clone E isolate VA-06X-29 by Etest method in presence of Tazobactam
[18] = test system: Pseudomonas aeruginosa; experiment: Antibacterial activity against VIM-2 producing Pseudomonas aeruginosa clone B2 isolate VA-06X-38 by Etest method in presence of Tazobactam
[19] = test system: Pseudomonas aeruginosa; experiment: Antibacterial activity against IMP-13 producing Pseudomonas aeruginosa clone C2 isolate NA-14X-12 by Etest method in presence of Tazobactam
[20] = test system: Pseudomonas aeruginosa; experiment: Antibacterial activity against VIM-1 producing Pseudomonas aeruginosa clone D isolate VA-06X-69 by Etest method in presence of Tazobactam
[21] = test system: Pseudomonas putida; experiment: Antibacterial activity against VIM-1 producing Pseudomonas putida isolate RM-11X-11 by Etest method in presence of Tazobactam
[22] = test system: Pseudomonas aeruginosa; experiment: Antibacterial activity against VIM-2 producing Pseudomonas aeruginosa clone B2 isolate VA-06X-28 by Etest method in presence of Tazobactam
[23] = test system: Pseudomonas aeruginosa; experiment: Antibacterial activity against VIM-1 producing Pseudomonas aeruginosa clone A2 isolate NA-14X-26 by Etest method in presence of Tazobactam
[24] = test system: Pseudomonas aeruginosa; experiment: Antibacterial activity against VIM-1 producing Pseudomonas aeruginosa clone D2 isolate VA-06X-16 by Etest method in presence of Tazobactam
[25] = test system: Pseudomonas aeruginosa; experiment: Antibacterial activity against VIM-1 producing Pseudomonas aeruginosa clone D2 isolate VA-06X-16 by Etest method
[26] = test system: Pseudomonas aeruginosa; experiment: Antibacterial activity against VIM-2 producing Pseudomonas aeruginosa clone B3 isolate PV-05X-07 by Etest method
[27] = test system: Pseudomonas aeruginosa; experiment: Antibacterial activity against VIM-1 producing Pseudomonas aeruginosa clone A2 isolate NA-14X-32 by Etest method
[28] = test system: Pseudomonas aeruginosa; experiment: Antibacterial activity against IMP-13 producing Pseudomonas aeruginosa clone C3 isolate PG-12X-03 by Etest method in presence of Tazobactam
[29] = test system: Pseudomonas aeruginosa; experiment: Antibacterial activity against VIM-1 producing Pseudomonas aeruginosa clone D1 isolate VA-06X-63 by Etest method
[30] = test system: Pseudomonas putida; experiment: Antibacterial activity against VIM-1 producing Pseudomonas putida isolate RM-11X-11 by Etest method
[31] = test system: Pseudomonas aeruginosa; experiment: Antibacterial activity against metallo-beta-lactamase positive Pseudomonas aeruginosa assessed as percent susceptible isolates by Etest method in presence of Tazobactam
[32] = test system: Pseudomonas aeruginosa; experiment: Antibacterial activity against VIM-1 producing Pseudomonas aeruginosa clone D1 isolate VA-06X-63 by Etest method in presence of Tazobactam
[33] = test system: Pseudomonas aeruginosa; experiment: Antibacterial activity against VIM-1 producing Pseudomonas aeruginosa clone D4 isolate VA-06X-47 by Etest method in presence of Tazobactam
[34] = test system: Pseudomonas aeruginosa; experiment: Antibacterial activity against VIM-1 producing Pseudomonas aeruginosa clone A2 isolate NA-14X-26 by Etest method
[35] = test system: Pseudomonas aeruginosa; experiment: Antibacterial activity against IMP-13 producing Pseudomonas aeruginosa clone C2 isolate NA-14X-02 by Etest method
[36] = test system: Pseudomonas aeruginosa; experiment: Antibacterial activity against VIM-1 producing Pseudomonas aeruginosa clone F isolate RM-11X-09 by Etest method in presence of Tazobactam
[37] = test system: Pseudomonas aeruginosa; experiment: Antibacterial activity against VIM-2 producing Pseudomonas aeruginosa clone B3 isolate PV-05X-02 by Etest method
[38] = test system: Pseudomonas aeruginosa; experiment: Antibacterial activity against VIM-1 producing Pseudomonas aeruginosa clone A3 isolate NA-14X-34 by Etest method
[39] = test system: Pseudomonas aeruginosa; experiment: Antibacterial activity against VIM-1 producing Pseudomonas aeruginosa clone D isolate VA-06X-69 by Etest method
[40] = test system: Pseudomonas aeruginosa; experiment: Antibacterial activity against IMP-13 producing Pseudomonas aeruginosa clone C2 isolate NA-14X-02 by Etest method in presence of Tazobactam
[41] = test system: Pseudomonas aeruginosa; experiment: Antibacterial activity against VIM-2 producing Pseudomonas aeruginosa clone B2 isolate VA-06X-38 by Etest method
[42] = test system: Pseudomonas aeruginosa; experiment: Antibacterial activity against IMP-13 producing Pseudomonas aeruginosa clone C2 isolate NA-14X-10 by Etest method
[43] = test system: Pseudomonas aeruginosa; experiment: Antibacterial activity against VIM-2 producing Pseudomonas aeruginosa clone B3 isolate PV-05X-07 by Etest method in presence of Tazobactam
[44] = test system: Pseudomonas aeruginosa; experiment: Antibacterial activity against VIM-2 producing Pseudomonas aeruginosa clone B3 isolate CR-04X-14 by Etest method in presence of Tazobactam
[45] = test system: Pseudomonas aeruginosa; experiment: Antibacterial activity against VIM-1 producing Pseudomonas aeruginosa clone A3 isolate FG-17X-08 by Etest method
[46] = test system: Pseudomonas aeruginosa; experiment: Antibacterial activity against VIM-1 producing Pseudomonas aeruginosa clone D2 isolate VA-06X-17 by Etest method in presence of Tazobactam
[47] = test system: Pseudomonas aeruginosa; experiment: Antibacterial activity against VIM-2 producing Pseudomonas aeruginosa clone B1 isolate SS-09X-45 by Etest method in presence of Tazobactam
[48] = test system: Enterobacter cloacae; experiment: Antibacterial activity against VIM-1 producing Enterobacter cloacae isolate TO-16X-51 by Etest method in presence of Tazobactam
[49] = test system: Pseudomonas aeruginosa; experiment: Antibacterial activity against VIM-2 producing Pseudomonas aeruginosa clone B2 isolate VA-06X-28 by Etest method
[50] = test system: Pseudomonas aeruginosa; experiment: Antibacterial activity against VIM-1 producing Pseudomonas aeruginosa clone D3 isolate VA-06X-65 by Etest method
[51] = test system: Pseudomonas aeruginosa; experiment: Antibacterial activity against IMP-13 producing Pseudomonas aeruginosa clone C2 isolate NA-14X-10 by Etest method in presence of Tazobactam
[52] = test system: Pseudomonas aeruginosa; experiment: Antibacterial activity against VIM-2 producing Pseudomonas aeruginosa clone B2 isolate VA-06X-20 by Etest method
[53] = test system: Pseudomonas aeruginosa; experiment: Antibacterial activity against IMP-13 producing Pseudomonas aeruginosa clone C2 isolate NA-14X-12 by Etest method
[54] = test system: Pseudomonas aeruginosa; experiment: Antibacterial activity against VIM-1 producing Pseudomonas aeruginosa clone G isolate NA-14X-13 by Etest method
[55] = test system: Pseudomonas aeruginosa; experiment: Antibacterial activity against VIM-1 producing Pseudomonas aeruginosa clone D3 isolate VA-06X-65 by Etest method in presence of Tazobactam
[56] = test system: Pseudomonas aeruginosa; experiment: Antibacterial activity against VIM-2 producing Pseudomonas aeruginosa clone B2 isolate VA-06X-20 by Etest method in presence of Tazobactam
[57] = test system: Pseudomonas aeruginosa; experiment: Antibacterial activity against VIM-1 producing Pseudomonas aeruginosa clone D4 isolate VA-06X-47 by Etest method
[58] = test system: Pseudomonas aeruginosa; experiment: Antibacterial activity against VIM-1 producing Pseudomonas aeruginosa clone A3 isolate FG-17X-08 by Etest method in presence of Tazobactam
[59] = test system: Pseudomonas aeruginosa; experiment: Antibacterial activity against VIM-2 producing Pseudomonas aeruginosa clone B3 isolate PV-05X-02 by Etest method in presence of Tazobactam
[60] = test system: Pseudomonas aeruginosa; experiment: Antibacterial activity against VIM-2 producing Pseudomonas aeruginosa clone B3 isolate CR-04X-14 by Etest method
[61] = test system: Enterobacter cloacae; experiment: Antibacterial activity against VIM-1 producing Enterobacter cloacae isolate TO-16X-51 by Etest method

## CCN1CCN(C(=O)N[C@@H](C(=O)N[C@@H]2C(=O)N3[C@@H]2SC(C)(C)[C@@H]3C(=O)O)c2ccccc2)C(=O)C1=O [PIPERACILLIN]
[1]
  MIC: 16 µg/mL
[2]
  MIC: > 128 µg/mL
[3]
  MIC: 16 µg/mL
[4]
  MIC: > 128 µg/mL
[5]
  MIC: > 128 µg/mL
[6]
  MIC: > 128 µg/mL
[7]
  MIC: 16 µg/mL (≈ 30.9 µM)
[8]
  MIC: > 128 µg/mL
[9]
  MIC: > 128 µg/mL
[10]
  MIC: > 128 µg/mL
[11]
  MIC: 16 µg/mL (≈ 30.9 µM)
[12]
  MIC: 24 µg/mL (≈ 46.4 µM)
[13]
  MIC: > 128 µg/mL
[14]
  MIC: > 128 µg/mL
[15]
  MIC: > 128 µg/mL
[16]
  MIC: > 128 µg/mL
[17]
  MIC: > 128 µg/mL
[18]
  MIC: 32 µg/mL
[19]
  MIC: 16 µg/mL
[20]
  MIC: > 128 µg/mL
[21]
  MIC: > 128 µg/mL
[22]
  MIC: 48 µg/mL
[23]
  MIC: > 128 µg/mL
[24]
  MIC: > 128 µg/mL
[25]
  MIC: > 128 µg/mL
[26]
  MIC: 48 µg/mL (≈ 92.7 µM)
[27]
  MIC: > 128 µg/mL
[28]
  MIC: 16 µg/mL
[29]
  MIC: > 128 µg/mL
[30]
  MIC: > 128 µg/mL
[31]
  Activity: 39%
[32]
  MIC: > 128 µg/mL
[33]
  MIC: > 128 µg/mL
[34]
  MIC: > 128 µg/mL
[35]
  MIC: 24 µg/mL (≈ 46.4 µM)
[36]
  MIC: > 128 µg/mL
[37]
  MIC: 48 µg/mL (≈ 92.7 µM)
[38]
  MIC: > 128 µg/mL
[39]
  MIC: > 128 µg/mL
[40]
  MIC: 16 µg/mL
[41]
  MIC: 32 µg/mL (≈ 61.8 µM)
[42]
  MIC: 16 µg/mL (≈ 30.9 µM)
[43]
  MIC: 32 µg/mL
[44]
  MIC: > 128 µg/mL
[45]
  MIC: > 128 µg/mL
[46]
  MIC: > 128 µg/mL
[47]
  MIC: > 128 µg/mL
[48]
  MIC: > 128 µg/mL
[49]
  MIC: 64 µg/mL (≈ 124 µM)
[50]
  MIC: > 128 µg/mL
[51]
  MIC: 16 µg/mL
[52]
  MIC: 64 µg/mL (≈ 124 µM)
[53]
  MIC: 16 µg/mL (≈ 30.9 µM)
[54]
  MIC: > 128 µg/mL
[55]
  MIC: > 128 µg/mL
[56]
  MIC: 48 µg/mL
[57]
  MIC: > 128 µg/mL
[58]
  MIC: > 128 µg/mL
[59]
  MIC: 32 µg/mL
[60]
  MIC: > 128 µg/mL
[61]
  MIC: > 128 µg/mL
